In US7169763B2, “Cytochrome P450 3A inhibitors and enhancers” (priority 2002, dated 2007):
Where two headings read alike, the source gives them in different places.

Columns and labels:
[1] = tested on: CYP3A; design: CYP3A Activity (percentage of control): dose or concentration left out as unconfirmed
[2] = given by mouth; cited from earlier work
[3] = in vivo; details: beagle, dog, po, 10 mg/kg
[4] = tested on: CYP3A; test: Determination of CYP3A activity by erythromycin demethylation method (rat liver homogenate/microsomes); design: CYP3A Activity (percentage of control): dose or concentration left out as unconfirmed; details: for inhibitory effects on rat liver CYP3A (in words): summary of Table 1
[5] = inhibitor concentration 0.004, Table 1 Inhibition
[6] = inhibitor concentration 0.04, Table 1 Inhibition

O=C/C=C/c1ccccc1 [Trans-cinnamaldehyde]
inhibitory effects on rat liver CYP3A (in words) [1]: particularly effective | CYP3A Activity (percentage of control) ([1]; rat, 15 min, 10.22): 30.95 ± 1.03 percentage of control

CC(C)(C)c1ccc(C(O)CCCN2CCC(C(O)(c3ccccc3)c3ccccc3)CC2)cc1 (centres unmarked) [terfenadine]
fraction of active ingredient quickly changed to metabolites [2]: 99.5%

CCC(C)(C)C(=O)O[C@H]1C[C@@H](C)C=C2C=C[C@H](C)[C@H](CC[C@@H]3C[C@@H](O)CC(=O)O3)[C@H]21 [Simvastatin]
MRT [3]: 2.79 h | Tmax [3]: 0.75 h | half-life [3]: 1.47 h

Oc1cc(O)c2c(c1)O[C@@H](c1ccc(O)c(O)c1)[C@@H](O)C2 [(+)-epicatechin]
CYP3A Activity (percentage of control) ([4]; inhibitor concentration 0.45, Table 1 Inhibition): 14.66 ± 7.66 percentage of control | CYP3A Activity (percentage of control) ([4]; inhibitor concentration 1.41, Table 1 Inhibition): 23.29 ± 5.28 percentage of control | CYP3A Activity (percentage of control) ([4]; inhibitor concentration 1.55, Table 1 Inhibition): 27.96 ± 5.07 percentage of control

CC(Cc1ccc(O)c(O)c1)C(C)Cc1ccc(O)c(O)c1 (centres unmarked) [Nordihydroguaiaretic Acid]
CYP3A Activity (percentage of control) [4, 5]: 71.26 ± 1.95 percentage of control | CYP3A Activity (percentage of control) [4, 6]: 60.28 ± 1.95 percentage of control | CYP3A Activity (percentage of control) ([4]; inhibitor concentration 0.4, Table 1 Inhibition): 42.53 ± 0.49 percentage of control | CYP3A Activity (percentage of control) ([4]; inhibitor concentration 3.09, Table 1 Inhibition): 8.96 ± 1.79 percentage of control | inhibitory effects on rat liver CYP3A (in words) [4]: particularly effective

CC1(C)CC[C@]2(C(=O)O)CC[C@]3(C)C(=CC[C@@H]4[C@@]5(C)CC[C@H](O)C(C)(C)[C@@H]5CC[C@]43C)[C@@H]2C1 [Oleanolic acid]
CYP3A Activity (percentage of control) ([4]; inhibitor concentration 0.522, Table 1 Inhibition): 55.95 ± 4.45 percentage of control | CYP3A Activity (percentage of control) ([4]; inhibitor concentration 77.07, Table 1 Inhibition): 44.64 ± 7.92 percentage of control

CCCCCCCCCCCCO [Lauryl alcohol]
CYP3A Activity (percentage of control) ([4]; inhibitor concentration 739.88, Table 1 Inhibition): 18.58 ± 1.46 percentage of control | inhibitory effects on rat liver CYP3A (in words) [4]: particularly effective

COc1ccc(-c2coc3cc(O)ccc3c2=O)cc1 [formononetin]
CYP3A Activity (percentage of control) ([4]; enhancer concentration 0.123, Table 2 Enhancement): 113.74 ± 8.87 percentage of control | CYP3A Activity (percentage of control) [4, 5]: 78.78 ± 2.76 percentage of control | CYP3A Activity (percentage of control) [4, 6]: 92.06 ± 0.77 percentage of control | CYP3A Activity (percentage of control) ([4]; inhibitor concentration 0.1, Table 1 Inhibition): 70.37 ± 5.79 percentage of control | enhancing effects on rat hepatic CYP3A (in words) ([4]; summary of Table 2): particularly effective
